Measurements published in paper PMC11882969 (Nature Communications, 2025).
“And” between values parts separate entries of the source, which are not always exact repeats. Equal values may be shown once. Read-outs that look alike come from different tables or passages of the source.

Legend:
[1] = molecular target: T1, CB1 (rCB1) (Rattus norvegicus, UniProt P20272); test: Single-point radioligand displacement screen; format: binding
[2] = molecular target: T2, hCB1 (Homo sapiens, UniProt P21554); test: Lance Ultra cAMP accumulation assay, CHO cells; format: cell-based; parameters: expressed in transfected cells; conditions: for cAMP assay signal, concentration-response point: replicates, sheet FigureS2a; for normalised cAMP response, concentration-response (Figure2f), replicate values: log[Compound;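 for all read-outs here: human CB1R stably expressed in CHO cells, ligands co-incubated with forskolin at room temperature, read-out is lowering of forskolin-stimulated cAMP accumulation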
T2 sequence (P21554 whole entry): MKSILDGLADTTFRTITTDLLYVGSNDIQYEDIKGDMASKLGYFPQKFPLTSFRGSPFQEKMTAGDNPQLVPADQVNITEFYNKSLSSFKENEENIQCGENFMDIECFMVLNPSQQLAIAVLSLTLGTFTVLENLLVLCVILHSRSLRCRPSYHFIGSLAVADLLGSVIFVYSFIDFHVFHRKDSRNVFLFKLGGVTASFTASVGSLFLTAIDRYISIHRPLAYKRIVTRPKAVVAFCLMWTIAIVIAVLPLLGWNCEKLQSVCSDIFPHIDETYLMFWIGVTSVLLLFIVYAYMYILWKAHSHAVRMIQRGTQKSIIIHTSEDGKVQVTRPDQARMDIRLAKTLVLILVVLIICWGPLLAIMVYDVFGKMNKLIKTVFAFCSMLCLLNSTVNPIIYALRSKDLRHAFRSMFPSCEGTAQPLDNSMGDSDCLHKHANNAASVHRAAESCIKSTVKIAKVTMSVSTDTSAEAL

[3] = molecular target: T2, hCB1; test: bioSensAll ebBRET signaling profiling, hCB1; format: cell-based; parameters: host or cells: HEK293SL cells, transient PEI transfection; conditions: for Gi1 hCB1 response: Gi1 biosensor; for Gi1 hCB1 / GoB hCB1: single replicate values, FigS6a; for EC50: read-out: EC50 [95% CI]; for Emax: normalized to CP-55,940
[4] = molecular target: T1, CB1 (rCB1); test: Radioligand competition binding, [3H]-CP-55,940, rat brain membranes

T1 sequence (P20272 whole entry): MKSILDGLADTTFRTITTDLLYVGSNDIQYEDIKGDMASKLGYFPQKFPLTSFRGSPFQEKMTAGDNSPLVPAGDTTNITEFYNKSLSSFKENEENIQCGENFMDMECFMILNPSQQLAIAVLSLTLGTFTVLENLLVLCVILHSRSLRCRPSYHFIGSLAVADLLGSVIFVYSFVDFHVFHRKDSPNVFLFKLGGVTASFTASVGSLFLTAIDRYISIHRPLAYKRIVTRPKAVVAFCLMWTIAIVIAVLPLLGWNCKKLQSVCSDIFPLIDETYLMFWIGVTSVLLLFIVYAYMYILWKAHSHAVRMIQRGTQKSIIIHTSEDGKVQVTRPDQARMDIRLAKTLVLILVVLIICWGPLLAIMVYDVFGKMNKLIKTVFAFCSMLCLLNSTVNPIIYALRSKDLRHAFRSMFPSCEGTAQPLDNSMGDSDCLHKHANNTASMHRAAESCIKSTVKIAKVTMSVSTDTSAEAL

## COC(=O)C(NC(=O)c1cc(C)n(-c2cccc(F)c2)n1)c1cccs1 (centres unmarked) [‘51486]
[1]; 10 µM, 1 µM or 300 nM by cell colour (not visible)
  % 1H-CP-55,940 displacement (mean) from single point screen: 90.60%
[1]; Figure 1c source data, replicate 1
  rep1_displacement: 90.6
[2]; compound 0.01 nM
  cAMP assay signal, concentration-response point: 0.003086 and 0.002857 and 0.002584
[2]; compound 0.1 nM
  cAMP assay signal, concentration-response point: 0.003236 and 0.002959 and 0.003953*
[2]; compound 1 nM
  cAMP assay signal, concentration-response point: 0.003012 and 0.002545 and 0.00241
[2]; compound 10 nM
  cAMP assay signal, concentration-response point: 0.003401 and 0.002801 and 0.00274
[2]; compound 100 nM
  cAMP assay signal, concentration-response point: 0.002632 and 0.003106 and 0.002457
[2]; compound 1000 nM
  cAMP assay signal, concentration-response point: 0.002532 and 0.002088 and 0.00216
[2]; compound 10000 nM
  cAMP assay signal, concentration-response point: 0.001565 and 0.001538 and 0.001686
[2]; compound 100000 nM
  cAMP assay signal, concentration-response point: 0.001247 and 0.001041 and 0.0009747
[2]; hCB1-expressing cells, in words
  agonism, inhibition of forskolin-stimulated cAMP: modest agonism
[2]; M] -5
  normalised cAMP response, concentration-response (Figure2f), replicate values: 61.1478 and 37.2808 and 60.3783 and 74.6524
[2]; M] -6
  normalised cAMP response, concentration-response (Figure2f), replicate values: 88.8547 and 72.8445 and 99.0012 and 98.4034
[2]; M] -7
  normalised cAMP response, concentration-response (Figure2f), replicate values: 93.8057 and 91.7167 and 95.78 and 96.566
[2]; M] -8
  normalised cAMP response, concentration-response (Figure2f), replicate values: 85.2922 and 84.747 and 110.313 and 100.436
[2]; M] -9
  normalised cAMP response, concentration-response (Figure2f), replicate values: 104.899 and 94.89 and 101.982 and 109.312
[2]; M] -10
  normalised cAMP response, concentration-response (Figure2f), replicate values: 98.9432 and 97.9859 and 99.2252 and 102.121
[2]; M] -11
  normalised cAMP response, concentration-response (Figure2f), replicate values: 94.0694 and 79.1039 and 104.119 and 97.9362
[2]; M] -12
  normalised cAMP response, concentration-response (Figure2f), replicate values: 99.9579 and 92.8829 and 101.899 and 97.9047
[3]; Log [Compound] (M) -4.22186
  Gi1 hCB1 response: 123.512
  Gi1 hCB1: 75.4915
  GoB hCB1: 69.3873
[3]; Log [Compound] (M) -4.63927
  Gi1 hCB1 response: 98.3102
  Gi1 hCB1: 68.0453
  GoB hCB1: 69.0456
[3]; Log [Compound] (M) -5.05788
  Gi1 hCB1 response: 74.9216
  Gi1 hCB1: 65.332
  GoB hCB1: 68.5421
[3]; Log [Compound] (M) -5.47381
  Gi1 hCB1 response: 77.764
  Gi1 hCB1: 58.8724
  GoB hCB1: 63.2909
[3]; Log [Compound] (M) -5.89285
  Gi1 hCB1 response: 72.6387
  Gi1 hCB1: 46.1383
  GoB hCB1: 45.7032
[3]; Log [Compound] (M) -6.31878
  Gi1 hCB1 response: 38.0146
  Gi1 hCB1: 23.9076
  GoB hCB1: 23.3139
[3]; Log [Compound] (M) -6.72585
  Gi1 hCB1 response: 33.2921
  Gi1 hCB1: 13.671
  GoB hCB1: 15.8509
[3]; Log [Compound] (M) -7.14267
  Gi1 hCB1 response: -1.511
  Gi1 hCB1: 3.866
  GoB hCB1: 8.064
[3]; Log [Compound] (M) -7.55284
  Gi1 hCB1 response: -15.3428
  Gi1 hCB1: 0.7982
  GoB hCB1: 4.971
[3]; Log [Compound] (M) -8
  Gi1 hCB1 response: 9.7692
  Gi1 hCB1: -0.466
  GoB hCB1: 0.09744
[3]; Log [Compound] (M) -8.22186
  Gi1 hCB1 response: 0.839
  Gi1 hCB1: 0.05819
  GoB hCB1: -3.517
[3]; Log [Compound] (M) -8.39794
  Gi1 hCB1 response: -12.3884
  Gi1 hCB1: 0.459
  GoB hCB1: -0.9816
[3]; Log [Compound] (M) -8.68787
  Gi1 hCB1 response: 2.204
  Gi1 hCB1: -0.3118
  GoB hCB1: -2.33
[3]; Log [Compound] (M) -9.15521
  Gi1 hCB1 response: -11.247
  Gi1 hCB1: 0.7365
  GoB hCB1: -2.906
[3]; Log [Compound] (M) -9.61989
  Gi1 hCB1 response: -13.1718
  Gi1 hCB1: 0.5515
  GoB hCB1: -0.9276
[3]; Log [Compound] (M) -10.0969
  Gi1 hCB1 response: -6.323
  Gi1 hCB1: 1.1836
  GoB hCB1: -3.176
[3]; Log [Compound] (M) -10.5529
  Gi1 hCB1 response: -17.8943
  Gi1 hCB1: 0.2124
  GoB hCB1: -1.989
[3]; Log [Compound] (M) -11.0177
  Gi1 hCB1 response: -4.935
  Gi1 hCB1: 0.3974
  GoB hCB1: -1.521
[3]; Log [Compound] (M) -11.4949
  Gi1 hCB1 response: -5.54
  Gi1 hCB1: 0.1507
  GoB hCB1: -1.827
[3]; Log [Compound] (M) -11.9208
  Gi1 hCB1 response: -6.838
  Gi1 hCB1: -0.03431
  GoB hCB1: 0.2953
[3]; Log [Compound] (M) -12.3979
  Gi1 hCB1 response: -1.466
  Gi1 hCB1: -0.06514
  GoB hCB1: -1.179
[3]; Log [Compound] (M) -12.8861
  Gi1 hCB1 response: -7.42
  Gi1 hCB1: -0.466
  GoB hCB1: -2.798
[3]; Log [Compound] (M) -13, individual replicate values
  Gi1 hCB1 response: -9.747 and -10.7098
[3]; Log [Compound] (M) -13
  Gi1 hCB1: -0.8976 and -0.03431
  GoB hCB1: -1.143 and -0.8017
[3]; hCB1 Gi1
  pEC50 [95% CI]: 6.1 [6.0 – 6.1]
  EC50: 849 nM
[3]; hCB1 GoB
  pEC50 [95% CI]: 6.2 [6.1 – 6.2]
  EC50: 711 nM
[3]; hCB1 Gz
  pEC50 [95% CI]: 6.0 [5.5 – 6.4]
  EC50: 1120 nM
[3]; read-out: Emax [95% CI], hCB1 Gi1
  Emax: 73%
[3]; read-out: Emax [95% CI], hCB1 GoB
  Emax: 74%
[3]; read-out: Emax [95% CI], hCB1 Gz
  Emax: 130%
[4]
  Ki: 794 nM
[4]; LLE = pIC50 − clogP
  LLE (lipophilic ligand efficiency): 3.1
[4]; from measured Ki
  binding free energy ΔG: 8.4 kcal/mol
[4]; from rCB1 affinity
  LE (ligand efficiency): 0.32
[4]; log[drug] -3.643
  radioligand binding remaining, competition curve (Figure2e), replicate values: 5.353 and 8.4728 and 6.119
[4]; log[drug] -4.35655
  radioligand binding remaining, competition curve (Figure2e), replicate values: 7.365 and 2.197 and 0.3487
[4]; log[drug] -5.07
  radioligand binding remaining, competition curve (Figure2e), replicate values: 21.0991 and 15.6904 and 16.8933
[4]; log[drug] -5.783
  radioligand binding remaining, competition curve (Figure2e), replicate values: 52.9233 and 50.4184 and 37.5523
[4]; log[drug] -6.496
  radioligand binding remaining, competition curve (Figure2e), replicate values: 81.1314 and 84.728 and 72.9079
[4]; log[drug] -7.21
  radioligand binding remaining, competition curve (Figure2e), replicate values: 91.0402 and 102.441 and 95.6067
[4]; log[drug] -7.923
  radioligand binding remaining, competition curve (Figure2e), replicate values: 92.6538 and 100.244 and 104.603
[4]; log[drug] -8.636
  radioligand binding remaining, competition curve (Figure2e), replicate values: 97.1716 and 91.2657
[4]; rCB1
  pKi [95% CI]: 6.14 [6.01 –6.26]
